Like-named read-outs stand apart in the source and are kept apart here.
How the values were obtained:
WT KRAS:SOS1 = WT KRAS:SOS1 (Homo sapiens, UniProt P01116); assay: KRAS WT:SOS1 GDP TR-FRET assay; type: binding; conditions: GST-WT KRAS 37.5 nM, GDP 10 μM, His-SOS1 18 nM
KRAS G12D:SOS1 = KRAS G12D:SOS1 (Homo sapiens, UniProt P01116, G12D); assay: KRAS G12D:SOS1 GDP TR-FRET assay; type: binding; conditions: GST-KRAS G12D 37.5 nM, GDP 10 μM, His-SOS1 18 nM
[1] = system: pERK1/2 (THR202/TYR204) in AsPC-1 cells; assay: pERK Assay (HTRF) in AsPC-1 cells; type: cell-based; conditions: Homo sapiens, ASPC1, 2 h compound treatment
GDP-loaded WT KRAS = GDP-loaded WT KRAS (Homo sapiens, UniProt P01116); assay: KRAS WT Probe Displacement Assay; type: binding
GDP-loaded KRAS G12D = GDP-loaded KRAS G12D (Homo sapiens, UniProt P01116, G12D); assay: KRAS G12D Probe Displacement Assay; type: binding
[2] = target: T1, KRAS G12D protein in AsPC-1 cells (Homo sapiens, UniProt P01116, G12D); assay: Western Blotting Assay in AsPC-1 cells; type: cell-based; conditions: 48 h compound treatment, concentration 3 uM
T1 construct: endogenous in cells; host or cells: AsPC-1
Procedure: AsPC-1 cell line was used in this study. […] 400000 AsPC-1 cells per well in 1 mL culture medium were seed in the 12-well plate for 4 hours. Cells were treated with an appropriate dilution series of compounds. After 48 h compound treatment, medium was aspirated, the cells were washed with PBS, and then 30 μL of 1× protein lysis buffer (Cell Signaling Technology) containing protease inhibitors (Merck) and phosphatase inhibitors (Sigma) was added. The cells were lysed, and after centrifugation, the supernatants were quantified by BCA Protein assay Kit (Thermo Fisher). 4× loading Buffer (Thermo Fisher) was added to equal amounts of total protein from each sample and heated at 95° C. for 5 minutes. […] of cell lysates were loaded onto a 12% NuPAGE Bis-Tris Gel (Thermo Fisher), electro-transferred to NC membranes (Thermo Fisher), The membranes were blocked at least 1 hour with Blocking reagent (LI-COR), and then incubated overnight with anti-KRAS (LSBio, LS-C175665) or pERK (Cell Signaling Technology, 4370L) antibodies and as loading control anti-β-actin (Cell Signaling Technology, 3700S) or anti-GAPDH (Cell Signaling Technology, 97166S) at 4° C. with gentle shaking. The membranes were washed three times with TBST, and incubated at least 1 hour at room temperature with anti-mouse or anti-Rabbit secondary fluorescent antibody (Thermo Fisher, A32729; LI-COR, 926-32213). […]

[3] = WT KRAS 3 nM, biotinylated probe 1 60 nM, read-out: KRAS WT Probe Displacement Assay IC50
[4] = KRAS G12D 0.5 nM, biotinylated probe 2 4 nM, read-out: KRAS G12D Probe Displacement Assay IC50

Cc1cc(N)nc(-c2c(Cl)cc3c(N4CC5CCC(C4)N5)nc(O[C@@H](C)CN4CCCCC4)nc3c2F)c1C(F)(F)F [Example E35, 6-(4-(3,8-diazabicyclo[3.2.1]octan-3-yl)-6-chloro-8-fluoro-2-(((S)-1-(piperidin-1-yl)propan-2-yl)oxy)quinazolin-7-yl)-4-methyl-5-(trifluoromethyl)pyridin-2-amine]
IC50 (WT KRAS:SOS1): 3300 nM
IC50 (KRAS G12D:SOS1): 22 nM
IC50 [1]: 4350 nM
IC50 (GDP-loaded WT KRAS; [3]): 7300 nM
IC50 (GDP-loaded KRAS G12D; [4]): 130 nM

CN1C[C@H](F)C[C@H]1COc1nc(N2C3CCC2CNC3)c2cc(Cl)c(-c3ccc(F)c4sc(N)nc34)c(F)c2n1 [Example E36, 4-(4-(3,8-diazabicyclo[3.2.1]octan-8-yl)-6-chloro-8-fluoro-2-(((2S,4R)-4-fluoro-1-methylpyrrolidin-2-yl)methoxy)quinazolin-7-yl)-7-fluorobenzo[d]thiazol-2-amine]
IC50 (WT KRAS:SOS1): 242 nM
IC50 (KRAS G12D:SOS1): 10 nM
IC50 [1]: 715 nM
IC50 (GDP-loaded WT KRAS; [3]): 120 nM
IC50 (GDP-loaded KRAS G12D; [4]): 3.7 nM

Cc1cc(N)nc(-c2c(Cl)cc3c(N4CC5CCC(C4)N5)nc(OC[C@@H]4C[C@@H](F)CN4C)nc3c2F)c1C(F)(F)F [Example E37, 6-(4-(3,8-diazabicyclo[3.2.1]octan-3-yl)-6-chloro-8-fluoro-2-(((2S,4R)-4-fluoro-1-methylpyrrolidin-2-yl)methoxy)quinazolin-7-yl)-4-methyl-5-(trifluoromethyl)pyridin-2-amine]
IC50 (WT KRAS:SOS1): 692 nM
IC50 (KRAS G12D:SOS1): 13 nM
IC50 [1]: 807 nM
IC50 (GDP-loaded WT KRAS; [3]): 700 nM
IC50 (GDP-loaded KRAS G12D; [4]): 16 nM

CC1CCCC(C)N1C[C@H](C)Oc1nc(N2CC3CCC(C2)N3)c2cc(Cl)c(-c3ccc(F)c4sc(N)nc34)c(F)c2n1 (some centres unmarked) [Example E38]
IC50 (WT KRAS:SOS1): 804 nM
IC50 (KRAS G12D:SOS1): 12 nM
IC50 [1]: 1310 nM
IC50 (GDP-loaded WT KRAS; [3]): 1400 nM
IC50 (GDP-loaded KRAS G12D; [4]): 32 nM

CN(C)C(=O)CCOc1nc(N2CC3CCC(C2)N3)c2cc(Cl)c(-c3ccc(F)c4sc(N)nc34)c(F)c2n1 [Example E40, 3-((7-(2-amino-7-fluorobenzo[d]thiazol-4-yl)-4-(3,8-diazabicyclo[3.2.1]octan-3-yl)-6-chloro-8-fluoroquinazolin-2-yl)oxy)-N,N-dimethylpropanamide]
IC50 (WT KRAS:SOS1): 2210 nM
IC50 (KRAS G12D:SOS1): 24 nM
IC50 [1]: > 10000 nM
IC50 (GDP-loaded WT KRAS; [3]): 1400 nM
IC50 (GDP-loaded KRAS G12D; [4]): 41 nM

C[C@@H](CN1CCOCC1)Oc1nc(N2C3CCC2CNC3)c2cc(Cl)c(-c3ccc(F)c4sc(N)nc34)c(F)c2n1 [Example E41, 4-(4-(3,8-diazabicyclo[3.2.1]octan-8-yl)-6-chloro-8-fluoro-2-(((S)-1-morpholinopropan-2-yl)oxy)quinazolin-7-yl)-7-fluorobenzo[d]thiazol-2-amine]
IC50 (WT KRAS:SOS1): 438 nM
IC50 (KRAS G12D:SOS1): 11 nM
IC50 [1]: 1480 nM
IC50 (GDP-loaded WT KRAS; [3]): 230 nM
IC50 (GDP-loaded KRAS G12D; [4]): 11 nM

C[C@@H](CN1CCC(F)C1)Oc1nc(N2C3CCC2CNC3)c2cc(Cl)c(-c3ccc(F)c4sc(N)nc34)c(F)c2n1 (stereo partly drawn) [Example E43, 4-(4-(3,8-diazabicyclo[3.2.1]octan-8-yl)-6-chloro-8-fluoro-2-(((2S)-1-(3-fluoropyrrolidin-1-yl)propan-2-yl)oxy)quinazolin-7-yl)-7-fluorobenzo[d]thiazol-2-amine]
IC50 (WT KRAS:SOS1): 488 nM
IC50 (KRAS G12D:SOS1): 17 nM
IC50 [1]: 2550 nM
IC50 (GDP-loaded WT KRAS; [3]): 320 nM
IC50 (GDP-loaded KRAS G12D; [4]): 8.4 nM

Cc1ncsc1-c1ccc([C@H](C)NC(=O)[C@@H]2C[C@@H](O)CN2C(=O)[C@@H](NC(=O)COC2CCN(CC(C)Oc3nc(N4CC5CCC(C4)N5)c4cc(Cl)c(-c5ccc(F)c6sc(N)nc56)c(F)c4n3)CC2)C(C)(C)C)cc1 (stereo partly drawn) [Example E44, (2S,4R)-1-((2S)-2-(2-((1-(2-((7-(2-amino-7-fluorobenzo[d]thiazol-4-yl)-4-(3,8-diazabicyclo[3.2.1]octan-3-yl)-6-chloro-8-fluoroquinazolin-2-yl)oxy)propyl)piperidin-4-yl)oxy)acetamido)-3,3-dimethylbutanoyl)-4-hydroxy-N—((S)-1-(4-(4-methylthiazol-5-yl)phenyl)ethyl)pyrrolidine-2-carboxamide]
KRAS G12D protein level decrease [2]: 70%

Cc1cc(N)nc(-c2c(Cl)cc3c(N4CC5CCC(C4)N5)nc(OC[C@@]45CCCN4C[C@H](F)C5)nc3c2F)c1C(F)(F)F [Example E49, 6-(4-(3,8-diazabicyclo[3.2.1]octan-3-yl)-6-chloro-8-fluoro-2-(((2R,7aS)-2-fluorotetrahydro-1H-pyrrolizin-7a(5H)-yl)methoxy)quinazolin-7-yl)-4-methyl-5-(trifluoromethyl)pyridin-2-amine]
IC50 (WT KRAS:SOS1): 35 nM
IC50 (KRAS G12D:SOS1): 4.8 nM
IC50 [1]: 84 nM
IC50 (GDP-loaded WT KRAS): 49 nM
IC50 (GDP-loaded KRAS G12D): 3.1 nM

Cc1cc(N)nc(-c2c(Cl)cc3c(N4CC5CCC(C4)N5)nc(OCC45CCCN4CC(F)C5)nc3c2F)c1C(F)(F)F (centres unmarked) [Example E50, 6-(4-(3,8-diazabicyclo[3.2.1]octan-3-yl)-6-chloro-8-fluoro-2-((2-fluorotetrahydro-1H-pyrrolizin-7a(5H)-yl)methoxy)quinazolin-7-yl)-4-methyl-5-(trifluoromethyl)pyridin-2-amine]
IC50 (WT KRAS:SOS1): 140 nM
IC50 (KRAS G12D:SOS1): 7.6 nM
IC50 [1]: 312 nM
IC50 (GDP-loaded WT KRAS): 160 nM
IC50 (GDP-loaded KRAS G12D): 4 nM

CN1C[C@H](F)C[C@H]1COc1nc(N2CC3CCC(C2)N3)c2cc(C(F)(F)F)c(-c3ccc(F)c4sc(N)nc34)c(F)c2n1 [Example E51, 4-(4-(3,8-diazabicyclo[3.2.1]octan-3-yl)-8-fluoro-2-(((2S,4R)-4-fluoro-1-methylpyrrolidin-2-yl)methoxy)-6-(trifluoromethyl)quinazolin-7-yl)-7-fluorobenzo[d]thiazol-2-amine]
IC50 (WT KRAS:SOS1): 61 nM
IC50 (KRAS G12D:SOS1): 6.5 nM
IC50 [1]: 202 nM
IC50 (GDP-loaded WT KRAS; [3]): 33 nM
IC50 (GDP-loaded KRAS G12D; [4]): 1.1 nM

CN1C[C@H](F)C[C@H]1COc1nc(N2CC3CCC(C2)N3)c2cc(Cl)c(-c3ccc(F)c4sc(N)nc34)c(Cl)c2n1 [Example E53, 4-(4-(3,8-diazabicyclo[3.2.1]octan-3-yl)-6,8-dichloro-2-(((2S,4R)-4-fluoro-1-methylpyrrolidin-2-yl)methoxy)quinazolin-7-yl)-7-fluorobenzo[d]thiazol-2-amine]
IC50 (WT KRAS:SOS1): 132 nM
IC50 (KRAS G12D:SOS1): 5.1 nM
IC50 [1]: 380 nM
IC50 (GDP-loaded WT KRAS; [3]): 47 nM
IC50 (GDP-loaded KRAS G12D; [4]): 1.2 nM

CC(F)CNC1C[C@H]2CC[C@@H]1N2c1nc(OC[C@@]23CCCN2C[C@H](F)C3)nc2c(F)c(-c3ccc(F)c4sc(N)nc34)c(C(F)(F)F)cc12 (stereo partly drawn) [Example E86, 7-fluoro-4-(8-fluoro-4-((1S,4R)-2-((2-fluoropropyl)amino)-7-azabicyclo[2.2.1]heptan-7-yl)-2-(((2R,7aS)-2-fluorotetrahydro-1H-pyrrolizin-7a(5H)-yl)methoxy)-6-(trifluoromethyl)quinazolin-7-yl)benzo[d]thiazol-2-amine]
IC50 [1]: 320 nM
IC50 (GDP-loaded WT KRAS; [3]): 16 nM
IC50 (GDP-loaded KRAS G12D; [4]): 1.4 nM

Nc1nc2c(-c3c(OC(F)(F)F)cc4c(N5CC6CCC(C5)N6)nc(OC[C@@]56CCCN5C[C@H](F)C6)nc4c3F)ccc(F)c2s1 [Example E87, 4-(4-(3,8-diazabicyclo[3.2.1]octan-3-yl)-8-fluoro-2-(((2R,7aS)-2-fluorotetrahydro-1H-pyrrolizin-7a(5H)-yl)methoxy)-6-(trifluoromethoxy)quinazolin-7-yl)-7-fluorobenzo[d]thiazol-2-amine]
IC50 [1]: 112 nM
IC50 (GDP-loaded WT KRAS; [3]): 25 nM
IC50 (GDP-loaded KRAS G12D; [4]): 0.24 nM

CN1C[C@H](F)CC1(C)COc1nc(N2CC3CCC(C2)N3)c2cc(Cl)c(-c3ccc(F)c4sc(N)nc34)c(F)c2n1 (stereo partly drawn) [Example E89, 4-(4-(3,8-diazabicyclo[3.2.1]octan-3-yl)-6-chloro-8-fluoro-2-(((4R)-4-fluoro-1,2-dimethylpyrrolidin-2-yl)methoxy)quinazolin-7-yl)-7-fluorobenzo[d]thiazol-2-amine]
IC50 [1]: 556 nM
IC50 (GDP-loaded WT KRAS; [3]): 121 nM
IC50 (GDP-loaded KRAS G12D; [4]): 2.4 nM
